The values below come from US5455222A, “1-substituted-5-thiomethylthiocyanato-1H-tetrazoles, compositions containing them and their use as antimicrobial and marine antifouling agents” (The Dow Chemical Company, priority 1994, dated 1995).

In brackets after ≈: the same amount, converted by molar mass.

The test system of one assay is Aspergillus niger (An). Put plainly: Minimum inhibitory concentration (MIC), yeast/fungi in malt yeast agar. The format is cell-based, Aspergillus niger ATCC 16404. The following applies: 30° C., 72 hours for fungi. How it is done: (§1) The minimum inhibitory concentration (MIC) for the compounds listed in Table I is determined for 9 bacteria, using nutrient agar, and 7 yeast and fungi, using malt yeast agar. A one percent solution of the test compound is prepared in a mixture of acetone and water.
(§2) Malt yeast agar is prepared by adding 3 g yeast extract and 45 g malt agar per liter of deionized water. The specific agar is dispensed in 30 mL aliquots into 25×200 mm test tubes, capped and autoclaved for 15 minutes at 115° C.
(§3) The test tubes containing the agar are cooled in a water bath until the temperature of the agar is 48° C. Then, an appropriate amount of the one percent solution of the test compound is added (except in the controls where no compound is added) to the respective test tubes so that the final concentrations are 500, 250, 100, 50, 25, 10, 5, 2.5, 1.0 and zero parts per million of the test compound in the agar, thus having a known concentration of test compound dispersed therein. The contents of the test tubes are then transferred to respective petri plates. After drying for 24 hours, the petri plates containing nutrient agar are inoculated with bacteria and those containing malt yeast agar are inoculated with yeast and fungi.
(§4) The inoculation with the yeast and fungi is accomplished as follows. Cultures of yeast and fungi are incubated for seven days on malt yeast agar at 30° C. These cultures are used to prepare suspensions by the following procedure. A suspension of each organism is prepared by adding 10 mL of sterile saline and 10 microliters of octylphenoxy polyethoxy ethanol to the agar slant of yeast or fungi. The sterile saline/octylphenoxy polyethoxy ethanol solution is then agitated with a sterile swab to suspend the microorganism grown on the slant. Each resulting suspension is diluted into sterile saline (1 part suspension to 9 parts sterile saline). Aliquots of these dilutions are placed in individual wells of Steer's Replicator and petri plates inoculated as previously described. The petri plates are incubated at 30° C. and read after 48 hours for yeast and 72 hours for fungi.
(§5) Table II lists the bacteria, yeast and fungi used in the MIC test described above along with their respective American Type Culture Collection (ATCC) identification numbers.
(§6) In Tables III and IV, the MIC values of the compounds described in Table I as compared to the MIC of a standard commercial preservative (with 1-(3-chloroallyl)-3,5,7-triaza-1-azoniaadamantane chloride as the active agent and referred to in Tables III and IV as "STANDARD I") are set forth for the bacteria organisms and yeast/fungi organisms which are listed in Table II.
`N#CSCSc1nnnn1-c1cccc(Cl)c1` [II, 1-(3-Chlorophenyl)-5-thiomethylthiocyanato-1H-tetrazole]: the MIC (in general, the smallest concentration in the dilution series that meets the test's criterion for growth inhibition) was below 10 µg/mL.
The same measure, in the same setting: for `N#CSCSc1nnnn1-c1ccc(Cl)cc1` [III, 1-(4-Chlorophenyl)-5-thiomethylthiocyanato-1H-tetrazole] the value was below 1 µg/mL.

The next assay deals with Bacillus subtilis (Bs). Put plainly: Minimum inhibitory concentration (MIC), bacteria in nutrient agar. The format is cell-based, Bacillus subtilis ATCC 8473. The following applies: nutrient agar pH 6.8, 30° C., 48 hours. How it is done:
as §1
(§7) Nutrient agar is prepared at pH 6.8, representing a neutral medium, and at pH 8.2, representing an alkaline medium. The nutrient agars are prepared by adding 23 g of nutrient agar to one liter of deionized water. In addition, the alkaline medium is prepared by adjusting a 0.04M solution of N-[tris-(hydroxymethyl)methyl]glycine buffered deionized water with concentrated sodium hydroxide to a pH of 8.5.
as §3
(§8) The inoculation with bacteria is accomplished by using the following procedure. Twenty-four hour-cultures of each of the bacteria are prepared by incubating the respective bacteria in tubes containing nutrient broth for 24 hours at 30° C. in a shaker. Dilutions of each of the 24 hour-cultures are made so that nine separate suspensions (one for each of the nine test bacteria) are made, each containing 10^8 colony forming units (CFU) per mL of suspension of a particular bacteria. Aliquots of 0.3 mL of each of the bacterial suspensions are used to fill the individual wells of Steer's Replicator. For each microbial suspension, 0.3 mL was used to fill three wells (i.e., three wells of 0.3 mL each) so that for the nine different bacteria, 27 wells are filled. The Steer's Replicator is then used to inoculate both the neutral and alkaline pH nutrient agar petri plates.
(§9) The inoculated petri plates are incubated at 30° C. for 48 hours and then read to determine if the test compound which is incorporated into the agar prevented growth of the respective bacteria.
as §5, §6
For the compound `N#CSCSc1nnnn1-c1cccc(Cl)c1` [II, 1-(3-Chlorophenyl)-5-thiomethylthiocyanato-1H-tetrazole], the lowest concentration to inhibit growth (MIC) was 100 µg/mL (≈ 352 µM).
Consider `N#CSCSc1nnnn1-c1ccc(Cl)cc1` [III, 1-(4-Chlorophenyl)-5-thiomethylthiocyanato-1H-tetrazole], for which the minimal inhibitory concentration (MIC) was below 10 µg/mL.

The same assay, now with this note: nutrient agar pH 8.2, 30° C., 48 hours.
On to `N#CSCSc1nnnn1-c1cccc(Cl)c1` [II, 1-(3-Chlorophenyl)-5-thiomethylthiocyanato-1H-tetrazole], for which the minimal inhibitory concentration (MIC) is 250 µg/mL (≈ 881 µM).
The compound `N#CSCSc1nnnn1-c1ccc(Cl)cc1` [III, 1-(4-Chlorophenyl)-5-thiomethylthiocyanato-1H-tetrazole] gave an MIC of 50 µg/mL (≈ 176 µM).

A further assay relates to marine organisms. Put plainly: Marine antifouling activity, coated test panels exposed to marine environment. Particulars: 6 weeks; bottom panel (black background); scale 10 (completely free of growth) to 0 (completely covered). Here is the method:
Test panels are prepared from clear, rigid polyvinyl chloride film that is 0.381×10^-3 m thick and has one textured surface. The test panels are 0.1524 m by 0.1524 m squares that have 0.00635 m holes punched at corners on 0.127 m centers. A 0.102 square template, with a 0.067 m diameter hole at the center, is attached to the center of the textured surface of the test panels.
A candidate marine antifoulant compound (1.0 g) is stirred into a resinous latex binder (9.0 g). A portion of the compound/binder mixture (1.5 g) is added to the center of the test panel and uniformly spread over the circular area inside the template.
Water is added dropwise as needed to properly spread the compound/binder mixture. The template prevents the compound/binder mixture from spreading beyond the uncovered area. […] The template is then removed. The test panel is then allowed to dry for 8 to 12 hours at room temperature.
Two test panels are prepared for each candidate marine antifoulant compound. Two control test panels are also prepared by only treating with the resinous latex binder. One test panel of each candidate marine […] compound is attached over a white background to the topside of an exposure support apparatus. The second test panel is attached over a black background to the underside of the exposure support apparatus. The exposure support apparatus is placed horizontally 0.0254 m under a marine surface with the white background topside facing up.
After being removed from the exposure support apparatus, each test panel is inspected and rated for marine organism growth on both the treated and untreated areas of the test panel. The marine organisms present on the treated and untreated areas are noted. The presence of algae spores and bacterial slime are noted but not included in rating each test panel. The test panels are rated on a scale from 10 (representing completely free of marine organism growth) to 0 (representing completely covered with marine organism growth).
In addition, test panels were prepared using tributyl tin oxide, a known marine antifouling compound.
Take `N#CSCSc1nnnn1-c1cccc(Cl)c1` [II, 1-(3-Chlorophenyl)-5-thiomethylthiocyanato-1H-tetrazole]: the “Marine Antifouling Rating, 6 Week Test, Bottom Panel” value is 10.
For `N#CSCSc1nnnn1-c1ccc(Cl)cc1` [III, 1-(4-Chlorophenyl)-5-thiomethylthiocyanato-1H-tetrazole], the “Marine Antifouling Rating, 6 Week Test, Bottom Panel” value worked out at 9.

Still in this assay, the particulars now being: 6 weeks; top panel (white background); scale 10 (completely free of growth) to 0 (completely covered).
As to `N#CSCSc1nnnn1-c1cccc(Cl)c1` [II, 1-(3-Chlorophenyl)-5-thiomethylthiocyanato-1H-tetrazole], the “Marine Antifouling Rating, 6 Week Test, Top Panel” value is reported as 9.
On the same count and under the same terms, for `N#CSCSc1nnnn1-c1ccc(Cl)cc1` [III, 1-(4-Chlorophenyl)-5-thiomethylthiocyanato-1H-tetrazole] the value was 9.

Staying with this assay, now noted: 15 weeks; bottom panel (black background); scale 10 (completely free of growth) to 0 (completely covered).
On to `N#CSCSc1nnnn1-c1cccc(Cl)c1` [II, 1-(3-Chlorophenyl)-5-thiomethylthiocyanato-1H-tetrazole], for which the “Marine Antifouling Rating, 15 Week Test, Bottom Panel” value amounted to 6.
Still for that read-out and setting: for `N#CSCSc1nnnn1-c1ccc(Cl)cc1` [III, 1-(4-Chlorophenyl)-5-thiomethylthiocyanato-1H-tetrazole] the value was 1.

The assay is the same for the next values; noted with them: 15 weeks; top panel (white background); scale 10 (completely free of growth) to 0 (completely covered).
For `N#CSCSc1nnnn1-c1cccc(Cl)c1` [II, 1-(3-Chlorophenyl)-5-thiomethylthiocyanato-1H-tetrazole], the “Marine Antifouling Rating, 15 Week Test, Top Panel” value was determined as 9.
`N#CSCSc1nnnn1-c1ccc(Cl)cc1` [III, 1-(4-Chlorophenyl)-5-thiomethylthiocyanato-1H-tetrazole]: the “Marine Antifouling Rating, 15 Week Test, Top Panel” value is listed as 4.

Another assay deals with Saccharomyces cerevisiae (Sc). Briefly: Minimum inhibitory concentration (MIC), yeast/fungi in malt yeast agar. The format is cell-based, Saccharomyces cerevisiae ATCC 4105. The following applies: 30° C., 48 hours for yeast. How it is done: as §1, §2, §3, §4, §5, §6
Turning to `N#CSCSc1nnnn1-c1cccc(Cl)c1` [II, 1-(3-Chlorophenyl)-5-thiomethylthiocyanato-1H-tetrazole], the MIC was below 10 µg/mL.
Same read-out and setting: for `N#CSCSc1nnnn1-c1ccc(Cl)cc1` [III, 1-(4-Chlorophenyl)-5-thiomethylthiocyanato-1H-tetrazole] the value was 2.5 µg/mL (≈ 8.81 µM).

The next assay has as its system Enterobacter aerogenes (Ea). Put plainly: Minimum inhibitory concentration (MIC), bacteria in nutrient agar. Particulars: Klebsiella aerogenes; nutrient agar pH 6.8, 30° C., 48 hours. The assay is classed as cell-based, Enterobacter aerogenes ATCC 13048. Here is the method: as §1, §7, §3, §8, §9, §5, §6
Compound `N#CSCSc1nnnn1-c1cccc(Cl)c1` [II, 1-(3-Chlorophenyl)-5-thiomethylthiocyanato-1H-tetrazole] showed a minimal inhibitory concentration (MIC) of 500 µg/mL (≈ 1760 µM).
The same measure, in the same setting: for `N#CSCSc1nnnn1-c1ccc(Cl)cc1` [III, 1-(4-Chlorophenyl)-5-thiomethylthiocyanato-1H-tetrazole] the value was 25 µg/mL (≈ 88.1 µM).

The assay is the same for the next values; noted with them: Klebsiella aerogenes; nutrient agar pH 8.2, 30° C., 48 hours.
For the compound `N#CSCSc1nnnn1-c1cccc(Cl)c1` [II, 1-(3-Chlorophenyl)-5-thiomethylthiocyanato-1H-tetrazole], inhibition of growth (MIC) required 500 µg/mL (≈ 1760 µM).
`N#CSCSc1nnnn1-c1ccc(Cl)cc1` [III, 1-(4-Chlorophenyl)-5-thiomethylthiocyanato-1H-tetrazole] registered an MIC of 250 µg/mL (≈ 881 µM).

A further assay concerns Escherichia coli (Ec). The description is as above. The format is cell-based, Escherichia coli ATCC 11229. The following applies: nutrient agar pH 6.8, 30° C., 48 hours. How it is done:
as §1, §7, §3, §8, §9, §5, §6
As for `N#CSCSc1nnnn1-c1cccc(Cl)c1` [II, 1-(3-Chlorophenyl)-5-thiomethylthiocyanato-1H-tetrazole], inhibition of growth (MIC) required 500 µg/mL (≈ 1760 µM).
Same read-out and setting: the value for `N#CSCSc1nnnn1-c1ccc(Cl)cc1` [III, 1-(4-Chlorophenyl)-5-thiomethylthiocyanato-1H-tetrazole] was 25 µg/mL (≈ 88.1 µM).

The assay is the same for the next values; noted with them: nutrient agar pH 8.2, 30° C., 48 hours.
Consider `N#CSCSc1nnnn1-c1cccc(Cl)c1` [II, 1-(3-Chlorophenyl)-5-thiomethylthiocyanato-1H-tetrazole], for which the MIC came to 500 µg/mL (≈ 1760 µM).
Compound `N#CSCSc1nnnn1-c1ccc(Cl)cc1` [III, 1-(4-Chlorophenyl)-5-thiomethylthiocyanato-1H-tetrazole] displayed a minimal inhibitory concentration (MIC) of 250 µg/mL (≈ 881 µM).

In another assay the test system is Penicillium chrysogenum (Pc). Briefly: Minimum inhibitory concentration (MIC), yeast/fungi in malt yeast agar. The assay is classed as cell-based, Penicillium chrysogenum ATCC 9480. Particulars: 30° C., 72 hours for fungi. How it is done:
as §1, §2, §3, §4, §5, §6
`N#CSCSc1nnnn1-c1cccc(Cl)c1` [II, 1-(3-Chlorophenyl)-5-thiomethylthiocyanato-1H-tetrazole] yielded a minimum inhibitory concentration (MIC) below 10 µg/mL.
The same measure, in the same setting: the value for `N#CSCSc1nnnn1-c1ccc(Cl)cc1` [III, 1-(4-Chlorophenyl)-5-thiomethylthiocyanato-1H-tetrazole] was below 1 µg/mL.

The subject of another assay is Fusarium oxysporum (Fo). The assay is described as above. The format is cell-based, Fusarium oxysporum ATCC 48112. Particulars: 30° C., 72 hours for fungi. Here is the method:
as §1, §2, §3, §4, §5, §6
On to `N#CSCSc1nnnn1-c1cccc(Cl)c1` [II, 1-(3-Chlorophenyl)-5-thiomethylthiocyanato-1H-tetrazole], for which the MIC was below 10 µg/mL.
As for `N#CSCSc1nnnn1-c1ccc(Cl)cc1` [III, 1-(4-Chlorophenyl)-5-thiomethylthiocyanato-1H-tetrazole], the MIC came to 2.5 µg/mL (≈ 8.81 µM).

For a further assay, the system named is Pseudomonas aeruginosa (PRD-10). Put plainly: Minimum inhibitory concentration (MIC), bacteria in nutrient agar. Particulars: nutrient agar pH 6.8, 30° C., 48 hours. The assay is classed as cell-based, Pseudomonas aeruginosa ATCC 15442. Here is the method: as §1, §7, §3, §8, §9, §5, §6
For `N#CSCSc1nnnn1-c1cccc(Cl)c1` [II, 1-(3-Chlorophenyl)-5-thiomethylthiocyanato-1H-tetrazole], the minimum inhibitory concentration (MIC) came to 500 µg/mL (≈ 1760 µM).
Compound `N#CSCSc1nnnn1-c1ccc(Cl)cc1` [III, 1-(4-Chlorophenyl)-5-thiomethylthiocyanato-1H-tetrazole] returned an MIC of 25 µg/mL (≈ 88.1 µM).

The assay is the same for the next values; noted with them: nutrient agar pH 8.2, 30° C., 48 hours.
In turn, `N#CSCSc1nnnn1-c1cccc(Cl)c1` [II, 1-(3-Chlorophenyl)-5-thiomethylthiocyanato-1H-tetrazole] returned an MIC of 250 µg/mL (≈ 881 µM).
Still for that read-out and setting: for `N#CSCSc1nnnn1-c1ccc(Cl)cc1` [III, 1-(4-Chlorophenyl)-5-thiomethylthiocyanato-1H-tetrazole] the value was 50 µg/mL (≈ 176 µM).
